Laboratory results reported in patent US10167279B2 (NOVARTIS AG, priority 2014, dated 2019).
pIC50: −log10 of the molar value.

biological target: C-Raf FL (Homo sapiens (Human), UniProt P04049, Y340E/Y341E); experiment: In vitro Raf activity determination (Alpha Screen, phospho-MEK), C-Raf FL (full length, Y340E/Y341E); assay type: biochemical; settings: ATP 1 μM; 60 min pre-incubation; 1 hour reaction; column head does not say FL or TR
From the text: The activity of a compound according to the present invention can be assessed by well-known in vitro & in vivo methods. Raf inhibition data provided herein was obtained using the following procedures.
Sf9 cells co-expressing both proteins were lysed and subjected to immobilized nickel chromatography and eluted with Imidazole. A second column (StrepII binding column) was used and eluted with desthiobiotin. Protein Tags were removed using Prescission enzyme and the protein was further purified using a flowthrough step to remove tags.
C-Raf TR refers to a truncated C-Raf protein, a Δ1-324 deletion mutant. C-Raf FL refers to the full-length C-Raf protein.
Full length MEK1 with an inactivating K97R ATP binding site mutation is utilized as a RAF substrate. The MEK1 cDNA was subcloned with an N-terminal (his)6 tag into a vector for E. Coli expression. The MEK1 substrate was purified from E. Coli lysate by nickel affinity chromatography followed by anion exchange. The final MEK1 preparation was biotinylated (Pierce EZ-Link Sulfo-NHS-LC-Biotin) and concentrated.
Assay protocol: Raf and biotinylated Mek (kinase dead) were combined at 2× final concentrations in assay buffer (50 mM Tris, pH 7.5, 15 mM MgCl2, 0.01% BSA and 1 mM DTT) and dispensed […] per well in assay plates (Greiner white 384 well assay plates #781207) containing […] of 40× of a Raf kinase inhibitor test compound diluted in 100% DMSO. The plate was incubated for 60 minutes at room temperature. […] The reactions were stopped and the phosphorylated product was measured using a rabbit anti-p-MEK (Cell Signaling, #9121) antibody and the Alpha Screen IgG (ProteinA) detection Kit (PerkinElmer #6760617R), by the addition of […] to the well of a mixture of the antibody (1:2000 dilution) and detection beads (1:2000 dilution of both beads) in Stop/bead buffer (25 mM EDTA, 50 mM Tris, pH 7.5, 0.01% Tween20). The additions were carried out under dark conditions to protect the detection beads from light. A lid was placed on top of the plate and incubated for 1 hour at room temperature, after which the luminescence was read on a PerkinElmer Envision instrument. The concentration of each compound for 50% inhibition (IC50) was calculated by non-linear regression using XL Fit data analysis software.

Chain of C-Raf FL (P04049 whole entry Y340E/Y341E): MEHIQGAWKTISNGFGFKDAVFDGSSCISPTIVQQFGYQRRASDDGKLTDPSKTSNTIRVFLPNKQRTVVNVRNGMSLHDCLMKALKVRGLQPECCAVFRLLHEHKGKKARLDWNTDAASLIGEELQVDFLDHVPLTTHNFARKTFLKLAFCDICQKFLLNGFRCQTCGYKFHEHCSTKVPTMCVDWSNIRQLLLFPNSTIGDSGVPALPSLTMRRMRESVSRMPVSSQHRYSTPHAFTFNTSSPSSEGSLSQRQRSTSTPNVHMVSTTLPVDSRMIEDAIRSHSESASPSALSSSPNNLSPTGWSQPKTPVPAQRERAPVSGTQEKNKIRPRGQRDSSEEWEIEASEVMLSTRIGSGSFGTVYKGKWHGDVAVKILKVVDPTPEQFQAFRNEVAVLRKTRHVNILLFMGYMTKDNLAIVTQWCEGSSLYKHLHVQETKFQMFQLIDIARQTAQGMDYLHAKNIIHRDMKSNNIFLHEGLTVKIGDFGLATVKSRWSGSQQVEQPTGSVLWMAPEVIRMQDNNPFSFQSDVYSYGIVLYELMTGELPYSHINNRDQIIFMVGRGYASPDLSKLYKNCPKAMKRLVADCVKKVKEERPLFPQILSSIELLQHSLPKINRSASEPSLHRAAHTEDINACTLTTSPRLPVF
Chain of C-Raf FL (P63104 whole entry partner): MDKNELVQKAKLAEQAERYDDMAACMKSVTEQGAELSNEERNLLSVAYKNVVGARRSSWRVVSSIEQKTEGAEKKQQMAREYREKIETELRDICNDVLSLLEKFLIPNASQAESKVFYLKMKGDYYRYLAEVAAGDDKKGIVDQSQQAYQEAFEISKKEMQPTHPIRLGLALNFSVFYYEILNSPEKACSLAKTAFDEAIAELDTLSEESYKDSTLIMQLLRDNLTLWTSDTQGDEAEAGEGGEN

| SMILES | pIC50 |
| --- | --- |
| Cc1ccc(NC(=O)c2cc(C(F)(F)F)ccn2)cc1-c1cc2c(c(C3CCOCC3)c1)NC(=O)C(C)(CO)O2 (single isomer, unassigned) [Example 194, N-(3-(2-(hydroxymethyl)-2-methyl-3-oxo-5-(tetrahydro-2H-pyran-4-yl)-3,4-dihydro-2H-benzo [b][1,4]oxazin-7-yl)-4-methylphenyl)-4-(trifluoromethyl) picolinamide carboxamide] | 10.15 |
| Cc1ccc(NC(=O)c2ccnc(C(F)(F)F)c2)cc1-c1cc(C2CCOCC2)nc(N2CCC(O)CC2)c1 [Example 187, N-(3-(2-(4-hydroxypiperidin-1-yl)-6-(tetrahydro-2H-pyran-4-yl)pyridin-4-yl)-4-methylphenyl)-2-(trifluoromethyl) isonicotinamide] | 9.16 |
| Cc1ccc(NC(=O)c2ccnc(C(F)(F)F)c2)cc1-c1cc(OCCO)nc(C2(C(F)F)COC2)c1 [Example 58, N-(3-(2-(3-(difluoromethyl)oxetan-3-yl)-6-(2-hydroxyethoxy)pyridin-4-yl)-4-methylphenyl)-2-(trifluoromethyl)isonicotin-amide] | 10.81 |
| Cc1ccc(NC(=O)c2cc(C(F)(F)F)c(Cl)cn2)cc1-c1cc(OC[C@H](O)CO)nc(C2CCOCC2)c1 [Example 282, (R)-5-chloro-N-(3-(2-(2,3-dihydroxypropoxy)-6-(tetrahydro-2H-pyran-4-yl)pyridin-4-yl)-4-methylphenyl)-4-(trifluoromethyl) picolinamide] | 9.52 |
| Cc1ccc(NC(=O)c2cc3cnccc3nc2C(F)(F)F)cc1-c1cc(OCCO)nc(C2CCOCC2)c1 [Example 255, N-(3-(2-(2-hydroxyethoxy)-6-(terahydro-2H-pyran-4-yl)pyridin-4-yl)-4-methylphenyl)-2-(trifluoromethyl)-1,6-naphthyridine-3-carboxamide] | 9.70 |
| Cc1ccc(NC(=O)c2cc(C(F)(F)F)ccn2)cc1-c1cc(OCCO)nc(C2(CF)CCOCC2)c1 [Example 214, N-(3-(2-(4-(fluoromethyl)tetrahydro-2H-pyran-4-yl)-6-(2-hydroxyethoxy)pyridin-4-yl)-4-methylphenyl)-4-(trifluoromethyl) picolinamide] | 9.52 |
| CCOc1nnc(-c2cc(NC(=O)c3cnnc(C(F)(F)F)c3)ccc2C)cc1C1CCOCC1 [Example 237, N-(5-(6-ethoxy-5-(tetrahydro-2H-pyran-4-yl)pyridazin-3-yl)-4-methylphenyl)-6-(trifluoromethyl) pyridazine-4-carboxamide] | 10.00 |
| Cc1ccc(NC(=O)c2cnnc(C(F)(F)F)c2)cc1-c1cc(OCCO)nc(C2(C)CCOCC2)c1 [Example 207, N-(3-(2-(2-hydroxyethoxy)-6-(4-methyltetrahydro-2H-pyran-4-yl)pyridin-4-yl)-4-methylphenyl)-6-(trifluoromethyl) pyridazine-4-carboxamide] | 10.00 |
| Cc1ccc(NC(=O)c2cc(C(F)(F)F)ccn2)cc1-c1cc(OCCO)nc(C2CCOCC2)c1 [Example 272, N-(3-(2-(2-hydroxyethoxy)-6-(tetrahydro-2H-pyran-4-yl)pyridin-4-yl)-4-methylphenyl)-4-(trifluoromethyl) picolinamide] | 10.30 |
| Cc1ncc(NC(=O)c2cccc(C(F)(F)F)c2)cc1-c1cc(C2COC2)c2nccn2n1 [Example 9, N-(6-methyl-5-(8-(oxetan-3-yl)imidazo[1,2-b]pyridazin-6-yl)pyridin-3-yl)-3-(trifluoromethyl)benzamide] | 9.52 |
| Cc1ncc(NC(=O)c2ccnc(C(C)(C)F)c2)cc1-c1cc(OCCO)nc(C2(F)COC2)c1 [Example 50, N-(2′-(3-fluorooxetan-3-yl)-6′-(2-hydroxyethoxy)-2-methyl-[3,4′-bipyridin]-5-yl)-2-(2-fluoropropan-2-yl)isonicotinamide] | 8.48 |
| Cc1ncc(NC(=O)c2ccnc(C(F)(F)F)c2)cc1-c1cc(OCCO)nc(C2(F)COC2)c1 [Example 51, N-(2′-(3-fluorooxetan-3-yl)-6′-(2-hydroxyethoxy)-2-methyl-[3,4′-bipyridin]-5-yl)-2-(trifluoromethyl)isonicotin-amide] | 8.55 |
